# From PubChem BioAssay AID1645863 (Buhrlage Lab, Dana-Farber Cancer Institute and Novartis …, 2021)
# Calls of active or inactive are those of the source. The rule behind the calls is not given here.
# Biological target: Ubiquitin carboxyl-terminal hydrolase 10 (Homo sapiens) (UniProt Q14694)
# Experiment: primary hit verification, biochemical, ubiquitin-specific protease 10 deubiquitylase inhibitors, concentration-effect titration (AID 1645863);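 note: potency values describe inhibition of USP10 cleavage of a fluorogenic ubiquitin substrate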
# Details: USP10 deubiquitinase enzymatic assay
# Chain of Ubiquitin carboxyl-terminal hydrolase 10 (Homo sapiens) (Q14694 whole entry, looked up): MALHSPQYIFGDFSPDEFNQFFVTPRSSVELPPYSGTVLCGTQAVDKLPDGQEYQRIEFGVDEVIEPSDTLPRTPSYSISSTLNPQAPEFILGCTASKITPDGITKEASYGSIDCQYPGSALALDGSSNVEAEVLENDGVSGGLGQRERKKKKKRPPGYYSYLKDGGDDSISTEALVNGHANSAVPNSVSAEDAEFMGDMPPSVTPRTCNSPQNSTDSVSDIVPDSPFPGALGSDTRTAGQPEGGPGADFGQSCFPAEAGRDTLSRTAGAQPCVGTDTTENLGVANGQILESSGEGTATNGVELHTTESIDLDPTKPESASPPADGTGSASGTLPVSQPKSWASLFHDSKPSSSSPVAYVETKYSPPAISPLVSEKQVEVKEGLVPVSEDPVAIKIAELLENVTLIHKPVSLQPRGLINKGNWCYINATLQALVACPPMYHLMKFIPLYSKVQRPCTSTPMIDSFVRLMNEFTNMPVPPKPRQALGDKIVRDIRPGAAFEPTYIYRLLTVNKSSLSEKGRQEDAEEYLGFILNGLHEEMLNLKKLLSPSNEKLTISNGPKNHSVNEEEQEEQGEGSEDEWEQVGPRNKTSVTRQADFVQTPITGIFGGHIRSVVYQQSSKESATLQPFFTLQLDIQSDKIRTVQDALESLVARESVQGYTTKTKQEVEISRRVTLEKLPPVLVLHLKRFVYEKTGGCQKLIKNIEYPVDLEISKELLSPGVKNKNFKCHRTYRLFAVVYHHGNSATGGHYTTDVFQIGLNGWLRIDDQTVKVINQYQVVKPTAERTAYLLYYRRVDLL
row,IC50,Compound
1,19.8 µM,Cc1cccc2nc(CSc3nc4ccc([N+](=O)[O-])cc4[nH]3)cn12
2,31.6 µM,O=C(Nc1nc(-c2ccccc2)ns1)c1ccc2ncsc2c1
3,25 µM,CCc1ccccc1NC(=O)Cn1c(SCc2ccc(F)cc2)nc2cccnc21
4,> 40 µM (inactive),CCCCCCC1CCC(O)CC(O)CC(O)CC(O)CC(O)CC(O)/C(C)=C/C=C\C=C/C=C/C=C/[C@H](O)[C@@H](C)OC1=O (stereo partly specified)
5,> 40 µM (inactive),Cc1nc2c(c(C)c1CCC(=O)Nc1ccccc1F)c(=O)n(C)c(=O)n2C
6,> 40 µM (inactive),COCCCN1CCS(=O)(=O)c2c(Cl)c(F)nc(Oc3ccccc3F)c21
7,19.6 µM,C[C@H](Cc1cc2c(cc1O)OCO2)[C@@H](C)Cc1cc2c(cc1O)OCO2
8,> 40 µM (inactive),Cc1ccc(NC(=O)Nc2ccc(C)n(CC(=O)Nc3cc(C)ccc3C)c2=O)cc1
9,25.1 µM,COC(=O)c1ccc(N2CCN(C(C)=O)CC2)c(NC(=O)COc2ccc([N+](=O)[O-])cc2)c1
10,> 40 µM (inactive),N#Cc1ccc(NC(=O)Nc2cccn(Cc3ccccc3Br)c2=O)cc1
11,> 40 µM (inactive),Cc1[nH]c2ccc(F)cc2c(=O)c1CN1CCCCC1
12,18.2 µM,O=C(Nc1cccc(F)c1)Nc1cccc(-c2nnc(-c3ccccc3)o2)c1
13,32.8 µM,O=C(NCCc1nc2ccccc2n1CCCOc1ccccc1Cl)C1CCCCC1
14,34.7 µM,O=C(CSc1oc(-c2ccc(F)cc2)nc1S(=O)(=O)c1ccc(F)cc1)Nc1ccc(F)cc1
15,> 40 µM (inactive),Cc1ccc(-c2nnc3ccc(SCC(=O)N4CCCc5ccccc54)nn23)cc1
16,38 µM,O=C(NCc1ccc(F)cc1)c1cccc(Nc2nc3ccccc3n3cnnc23)c1
17,> 40 µM (inactive),O=C(Nc1ccccc1-c1nc(-c2ccccn2)no1)c1cc(Cl)ccc1Cl

# More lines, now with the values behind:
row,Compound,IC50
1,Cn1c(COc2cccc3cccnc23)nnc1SCC(=O)c1ccc(Cl)cc1Cl,> 40 µM (inactive)
2,Cc1c(-c2nn3c(-c4ccco4)nnc3s2)cccc1[N+](=O)[O-],> 40 µM (inactive)
3,Cc1ccc(CNC(=O)Cn2c(=O)n(CCCC(=O)NCc3ccc(F)cc3)c(=O)c3ccccc32)cc1,17.3 µM
4,CCc1ccc(NC(=O)Cc2nnc3cc(-c4nc(C)no4)ccn23)cc1,12.7 µM
5,COc1ccc(NC(=O)c2nnc(C(=O)NCc3ccccc3F)s2)cc1,> 40 µM (inactive)
6,O=C(c1cc(Cl)c(Cl)[nH]1)c1cc(Cl)cc(Cl)c1O,15.2 µM
7,Cc1ccc(N2CC(c3nnc(NC(=O)CCc4ccccc4)s3)CC2=O)cc1 (stereo unspecified),> 40 µM (inactive)
8,Fc1cccc(Nc2ncnc3c2oc2ccccc23)c1,> 40 µM (inactive)
9,O=C(NC1CCCC1)C1CC(=O)N(c2cccc(-c3noc(-c4cccs4)n3)c2)C1 (stereo unspecified),> 40 µM (inactive)
10,COc1ccc(NS(=O)(=O)c2cc(NC(=O)CC(=O)c3ccc([N+](=O)[O-])cc3)ccc2Cl)cc1,12.2 µM
11,Cc1cc(C)c(NC(=O)Cc2sc(Nc3ccc(C)c(C)c3)nc2O)c(C)c1,> 40 µM (inactive)
12,CSc1ncccc1C(=O)NC1(O)C(=O)c2ccccc2C1=O,9.86 µM
13,C=C/C(=C/C(=O)C[C@H](C)C[C@@H](C)CC[C@H](O)[C@H](C)C(=O)CC(O)[C@H](C)[C@@H](C)OC(=O)C[C@@H](O)C1=C(C)C(=O)OC1=O)CC (stereo partly specified),9.16 µM
14,CSc1ccc(CNC(=O)Cn2c(=O)[nH]c3c(-c4ccccc4)c[nH]c3c2=O)cc1,> 40 µM (inactive)
15,CCCCCCCCCc1cc(OC(=O)c2c(CCCCCCCCC)cc(O)cc2O[C@@H]2O[C@H](CO)[C@@H](O)[C@H](O)[C@H]2O)cc(O)c1C(=O)O,3.43 µM
16,O=C(COc1ccc(Cl)cc1)Nc1noc(-c2cccs2)n1,> 40 µM (inactive)
17,COc1ccc(NC(=O)Cn2c(=O)n(CCCCC(=O)NCc3ccco3)c(=O)c3ccccc32)cc1Cl,> 40 µM (inactive)
18,O=C(CCCCCn1c(=O)c2sccc2n(CC(=O)c2ccc(Cl)c(Cl)c2)c1=O)NCc1ccc2c(c1)OCO2,10.6 µM
19,O=C(COc1ccc(N2CC(C(=O)NCc3ccccc3)CC2=O)cc1)Nc1ccc(F)cc1 (stereo unspecified),> 40 µM (inactive)
